Patent US7576217B2, “Quinolines as allosteric enhancers of the GABAB receptors” (Hoffman-La Roche Inc., priority 2004, dated 2009)
Read-outs that look alike come from different tables or passages of the source.

Key:
human GABABR1aR2a = target: T1, human GABABR1aR2a (Homo sapiens, UniProt O75899+Q9UBS5); assay: Intracellular Ca2+ mobilization assay in CHO-GABABR1aR2a-Gα16 cell (FLIPR); type: cell-based; details: for GABA shift Log [EC50(GABA + 10 μM cp)/EC50(GABA alone)]: GABA 0.0003-30 μM with and without 10 μM enhancer; for Emax: enhancer 0.001-30 μM in presence of 10 nM GABA (EC10), applied 15 min before GABA, read-out: Emax (%) at 10 nM GABA alone = 0% 10 μM GABA alone = 100%; for EC50: enhancer concentration-response in presence of 10 nM GABA (EC10)
T1 construct: expressed in transfected cells
T1 sequence (Q9UBS5 15-961 limits assumed): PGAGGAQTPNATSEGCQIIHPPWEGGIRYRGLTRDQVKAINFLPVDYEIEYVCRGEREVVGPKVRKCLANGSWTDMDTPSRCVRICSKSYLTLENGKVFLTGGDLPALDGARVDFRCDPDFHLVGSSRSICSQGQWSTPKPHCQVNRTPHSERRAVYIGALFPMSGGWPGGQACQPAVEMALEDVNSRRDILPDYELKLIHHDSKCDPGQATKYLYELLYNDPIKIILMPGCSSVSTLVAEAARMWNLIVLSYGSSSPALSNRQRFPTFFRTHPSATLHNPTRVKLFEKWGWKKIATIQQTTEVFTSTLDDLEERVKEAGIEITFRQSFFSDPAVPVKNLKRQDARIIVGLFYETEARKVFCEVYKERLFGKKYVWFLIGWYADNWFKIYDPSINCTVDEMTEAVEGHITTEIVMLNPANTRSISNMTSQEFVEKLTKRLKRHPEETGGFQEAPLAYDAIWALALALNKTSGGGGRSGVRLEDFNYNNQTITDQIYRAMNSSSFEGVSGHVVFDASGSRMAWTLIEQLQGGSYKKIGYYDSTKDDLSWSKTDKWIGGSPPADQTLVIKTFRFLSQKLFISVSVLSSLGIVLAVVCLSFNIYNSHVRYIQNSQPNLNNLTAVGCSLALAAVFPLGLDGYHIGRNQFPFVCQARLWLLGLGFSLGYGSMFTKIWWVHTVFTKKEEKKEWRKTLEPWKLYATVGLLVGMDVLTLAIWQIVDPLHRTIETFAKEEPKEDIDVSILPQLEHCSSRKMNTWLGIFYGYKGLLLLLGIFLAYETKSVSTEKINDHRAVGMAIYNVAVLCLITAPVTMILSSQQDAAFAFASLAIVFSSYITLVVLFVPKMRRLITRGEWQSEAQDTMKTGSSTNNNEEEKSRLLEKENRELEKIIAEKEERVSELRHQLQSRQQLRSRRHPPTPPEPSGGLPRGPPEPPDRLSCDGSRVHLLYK
T1 sequence (O75899 42-941): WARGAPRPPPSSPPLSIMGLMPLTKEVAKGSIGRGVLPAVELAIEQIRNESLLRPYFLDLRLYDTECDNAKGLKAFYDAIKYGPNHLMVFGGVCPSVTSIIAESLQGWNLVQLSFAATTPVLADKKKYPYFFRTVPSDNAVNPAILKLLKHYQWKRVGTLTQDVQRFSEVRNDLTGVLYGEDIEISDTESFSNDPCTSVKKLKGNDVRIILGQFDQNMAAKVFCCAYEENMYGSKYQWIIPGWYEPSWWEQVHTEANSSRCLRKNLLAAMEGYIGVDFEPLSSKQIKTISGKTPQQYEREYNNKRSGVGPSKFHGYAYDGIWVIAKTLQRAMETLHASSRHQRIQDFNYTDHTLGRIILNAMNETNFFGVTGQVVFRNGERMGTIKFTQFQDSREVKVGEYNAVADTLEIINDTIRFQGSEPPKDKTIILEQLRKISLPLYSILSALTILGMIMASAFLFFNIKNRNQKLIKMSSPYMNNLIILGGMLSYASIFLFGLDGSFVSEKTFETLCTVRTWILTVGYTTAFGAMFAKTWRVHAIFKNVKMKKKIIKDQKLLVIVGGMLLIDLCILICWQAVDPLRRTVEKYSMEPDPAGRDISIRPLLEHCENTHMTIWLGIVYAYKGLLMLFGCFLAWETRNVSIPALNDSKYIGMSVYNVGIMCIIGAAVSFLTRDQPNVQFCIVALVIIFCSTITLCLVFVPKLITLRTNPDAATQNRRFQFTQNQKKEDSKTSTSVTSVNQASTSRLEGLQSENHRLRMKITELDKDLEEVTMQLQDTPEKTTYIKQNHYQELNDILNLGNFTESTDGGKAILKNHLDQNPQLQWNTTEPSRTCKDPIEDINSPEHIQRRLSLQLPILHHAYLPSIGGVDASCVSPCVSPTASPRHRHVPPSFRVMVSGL
Experimental: Intracellular Ca^2+ Mobilization Assay
The Chinese Hamster Ovary (CHO) cells stably expressing human GABABR1aR2a and Gα16 were seeded at 5×10^4 cells/well in the poly-D-lysine treated, 96-well, black/clear-bottomed plates (BD Biosciences, Palo Alto, Calif.). 24 h later, the cells were loaded for 90 min at 37° C. with 4 μM Flou-4 acetoxymethyl ester (Catalog No. F-14202, Molecular Probes, Eugene, Oreg.) in loading buffer (1×HBSS, 20 mM HEPES, 2.5 mM Probenecid). Hanks' Balanced Salt Solution (HBSS) (10×) (catalog No. 14065-049) and HEPES (1M) (catalog No. 15630-056) were purchased from Invitrogen, Carlsbad, Calif. Probenecid (250 mM) (catalog No. P8761) was from Sigma, Buchs, Switzerland. The cells were washed five times with loading buffer to remove excess dye and intracellular calcium mobilization, [Ca^2+]i were measured using a Fluorometric Imaging Plate Reader (FLIPR, Molecular Devices, Menlo Park, Calif.) as described previously (Porter et al., Br. J. Pharmacol., 128, 13-20, 1999). The enhancers were applied 15 min before the application of the GABA. For GABA shift assay, concentration-response curves of GABA (0.0003-30 μM) were determined in the absence and presence of […] enhancer. The GABA-shift is defined as Log [EC50 (GABA+10 μM enhancer)/EC50 (GABA alone)]. The % maximum enhancing effect (% Emax) and potency (EC50 value) of each enhancer was determined from concentration-response curve of the enhancer (0.001-30 μM) in the presence of 10 nM GABA (EC10). Responses were measured as peak increase in fluorescence minus basal, normalized to the maximal stimulatory effect induced by 10 μM GABA alone (considered 100%) and 10 nM GABA alone (considered 0%). The data were fitted with the equation Y=100+(Max−100)/(1+(EC50/[drug])^n) where Max is the maximum effect, EC50 the concentration eliciting a half-maximum effect and n the Hill slope.

[1] = PO, cited from earlier work
[2] = cited from earlier work
[3] = rats; cited from earlier work

| SMILES | GABA shift Log [EC50(GABA + 10 μM cp)/EC50(GABA alone)] (human GABABR1aR2a) | Emax (human GABABR1aR2a) | EC50 (human GABABR1aR2a) | also measured |
| --- | --- | --- | --- | --- |
| NCC(CC(=O)O)c1ccc(Cl)cc1 (stereo not drawn) [Baclofen, β-chlorophenyl GABA] |  |  |  | effect on spontaneous locomotor activity, rotarod, body temperature and traction test ([1]; 2.5-15 mg/kg): showed these side effects |
| CSc1nc(NC2CCCC2)c([N+](=O)[O-])c(NC2CCCC2)n1 [GS39783, N,N_-dicyclopentyl-2-methylsulfanyl-5-nitro-pyrimidine-4,6-diamine] |  |  |  | tolerance after chronic treatment ([2]; 21 days, 10 mg/kg, P.O., once daily): No tolerance; anxiolytic-like effects ([2]; elevated plus maze (rat), elevated zero maze (mice and rats), stress-induced hyperthermia (mice)): exhibited anxiolytic-like effects; decreasing cocaine self-administration [3]: effective; effect on spontaneous locomotor activity, rotarod, body temperature and traction test ([1]; 0.1-200 mg/kg): had no effect |
| Cc1nc2ccc(Br)cc2c(-c2ccccc2)c1C(=O)C(F)(F)F [Example 3, 1-(6-Bromo-2-methyl-4-phenyl-quinolin-3-yl)-2,2,2-trifluoro-ethanone] | −1.20 | 124% | 0.8 µM |  |
| Cc1nc2ccc(OC(F)(F)F)cc2c(-c2ccccc2)c1C(=O)C(F)(F)F [Example 11, 2,2,2-Trifluoro-1-(2-methyl-4-phenyl-6-trifluoromethoxy-quinolin-3-yl)-ethanone] | −1.00 | 65% | 0.8 µM |  |
| CC(C)(CO)Cc1cc(C(C)(C)C)c(O)c(C(C)(C)C)c1 [CGP7930, 2,6-di-tert-butyl-4-(3-hydroxy-2,2-dimethyl-propyl)-phenol] |  |  |  | decreasing cocaine self-administration [3]: effective |

The next lines start with results.

| GABA shift Log [EC50(GABA + 10 μM cp)/EC50(GABA alone)] (human GABABR1aR2a) | Emax (human GABABR1aR2a) | EC50 (human GABABR1aR2a) | SMILES | also measured |
| --- | --- | --- | --- | --- |
| −0.70 | 63% | 0.9 µM | Cc1nc2cc3c(cc2c(-c2ccccc2)c1C(=O)C(F)(F)F)OC(F)(F)O3 [Example 19, 1-(2,2-Difluoro-6-methyl-8-phenyl-[1,3]dioxolo[4,5-g]quinolin-7-yl)-2,2,2-trifluoro-ethanone] |  |
| −0.90 | 62% | 0.33 µM | Cc1nc2ccc(N3CCCCC3)cc2c(-c2ccc(F)cc2)c1C(=O)C(F)(F)F [Example 33, 2,2,2-Trifluoro-1-[4-(4-fluoro-phenyl)-2-methyl-6-piperidin-1-yl-quinolin-3-yl]-ethanone] |  |
| −1.15 | 67% | 1.6 µM | CC(=O)c1c(C)nc2ccc(OC(F)(F)F)cc2c1-c1cccc(Cl)c1 [Example 15, 1-[4-(3-Chloro-phenyl)-2-methyl-6-trifluoromethoxy-quinolin-3-yl]-ethanone] |  |
| −0.90 | 58% | 2.2 µM | Cc1nc2ccc(Br)cc2c(-c2ccc(F)cc2)c1C(=O)C1CC1 [Example 56, [6-Bromo-4-(4-fluoro-phenyl)-2-methyl-quinolin-3-yl]-cyclopropyl-methanone] |  |
